Data taken from patent publication US9669061B2, “Medicinal agent exhibiting antiprotozoal activity to Trichomonas vaginalis in an in-vitro model system” (Viktor Ivanovich Roschin, priority 2008, dated 2017).
Converted amounts (≈) assume the structure as drawn.

Test system: T. vaginalis isolates
Experiment: Sensitivity of T. vaginalis isolates to metronidazole (serial dilution MIC by immobilisation; lysis method for amastigote forms)
Format: cell-based, Trichomonas vaginalis
Conditions: for MIC: Trichomonas vaginalis
Protocol: Then, the sensitivity of T. vaginalis to metronidazole was examined in vitro, using as an indicator the immobilisation of the trichomonad by the test-substance. For the sensitivity test, 90% or more of the protozoa were required to be motile. The sensitivity of T. vaginalis isolates to metronidazole was determined using serials dilution and the minimum inhibitory concentration (MIC) method. 4.0 ml of the medium was placed in test tubes and mixed with 0.5 ml of solution various concentrations of metronidazole—from 0.25 to 1000 μg/ml, or 1 mg/ml).
Then, 0.5 ml of pathogenic culture containing a known concentration of T. vaginalis (cells/ml) was added to the test tubes. Media without the test substance was used as a control. Vaseline was added to the surface (0.5 mm layer) of the tubes to create anaerobic conditions necessary for the growth of T.vaginalis. The test tubes were then placed in a thermostat at 37° C. Results were recorded 48 and 96 hours after inoculation.
The sensitivity of trichomonad to metronidazole was determined based on the minimum inhibitory concentration (MIC), which causes immobilisation of all cells of T.vaginalis. The strains were considered as resistant to metronidazole, when immobilisation occurred at concentration of metronidazole exceeding 15 μg/ml.
The MIC method cannot be used when atypical, amastigote (lacking flagella) T. vaginalis are present. Instead, a common in vitro lysis method for determining the sensitivity to antiprotozoal medications was used. Lysis of all trichomonas is an indicator of the efficacy of the test substance. Nutrient media containing trichomonas without metronidazole was used as a control. Metronidazole, at concentrations of 10, 15, 25, and 50 μg/ml was used in this experiment. Strains that lysed at a concentration of 25 μg/ml were considered resistant to metronidazole.

MIC (isolate 1 (actively mobile)): 15 µg/mL (≈ 87.6 µM)
MIC (isolate 2 (actively mobile)): 15 µg/mL (≈ 87.6 µM)
MIC (isolate 3 (actively mobile)): 25 µg/mL (≈ 146 µM)
MIC (isolate 4 (amastigote)): 50 µg/mL (≈ 292 µM)
MIC (isolate 5 (amastigote)): 25 µg/mL (≈ 146 µM)
MIC (isolate 6 (amastigote)): 50 µg/mL (≈ 292 µM)
MIC (isolate 7 (amastigote)): 25 µg/mL (≈ 146 µM)
MIC (isolate 8 (amastigote)): 25 µg/mL (≈ 146 µM)
MIC (isolate 9 (amastigote)): > 50 µg/mL
MIC (isolate 10 (amastigote)): 50 µg/mL (≈ 292 µM)
MIC (strains 4, 6, 9 and 10): > 25 µg/mL
Structure (SMILES): Cc1ncc([N+](=O)[O-])n1CCO [Metronidazole, metronidazole]
number of isolates (out of 10) on which metronidazole had an effect (metronidazole 15 μg/ml): 2
resistance of isolates to metronidazole (the rest of the isolates (not affected at 15 μg/ml)): resistant
